Assay results: patent US20260103466A1, “PROCESS FOR THE MANUFACTURE OF SALTS AND CRYSTALLINE FORMS OF 1-(8-BROMOPYRIDO[2,3-E][1,2,4]TRIAZOLO[4,3-A]PYRAZIN-4-YL)-NMETHYLAZETIDIN-3-AMINE AND NOVEL CRYSTALLINE FORMS” (JW PHARMACEUTICAL CORPORATION, priority 2022, published 2026)

Legend:
[1] = Solubility in various solvents; format: physicochemical
[2] = Stability towards hydrolysis and pH during processing in aqueous environment; format: physicochemical; conditions: compared to the hydrogen sulfate salt; for Stability towards hydrolysis: processing in aqueous, elevated temperatures at least as high as 50° C.
[3] = Solid form stability on drying and in water-containing environments; format: physicochemical; conditions: for Stability during gentle drying: polymorphic forms of the methyl sulfate salt
histamine 4 receptor = histamine 4 receptor (Homo sapiens, UniProt Q9H3N8); conditions: cited from earlier work
[4] = system: inflammatory cells such as mast cells and eosinophils; conditions: cited from earlier work

histamine 4 receptor, sequence (Q9H3N8 whole entry): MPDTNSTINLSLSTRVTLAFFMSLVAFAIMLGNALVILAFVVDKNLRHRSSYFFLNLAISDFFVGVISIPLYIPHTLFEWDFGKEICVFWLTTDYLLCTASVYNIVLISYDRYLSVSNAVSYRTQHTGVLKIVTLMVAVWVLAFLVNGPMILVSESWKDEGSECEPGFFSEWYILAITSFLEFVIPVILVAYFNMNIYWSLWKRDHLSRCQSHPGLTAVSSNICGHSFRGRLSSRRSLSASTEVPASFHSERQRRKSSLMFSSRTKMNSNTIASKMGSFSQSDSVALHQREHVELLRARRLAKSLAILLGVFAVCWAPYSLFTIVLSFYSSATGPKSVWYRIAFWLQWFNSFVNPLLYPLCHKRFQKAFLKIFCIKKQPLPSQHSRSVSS

“1-(8-bromopyrido[2,3-e][1,2,4]triazolo[4,3-a]pyrazin-4-yl)-N-methylazetidin-3-amine ethyl sulfate” showed a Solubility ([1]; solvent 1,3-dimethyl-2-imidazolidinone, ethyl sulfate form A) of 17000 µg/mL, a Solubility ([1]; solvent 1-propanol, ethyl sulfate form A) of 37 µg/mL and a Solubility ([1]; solvent 2-propanol, ethyl sulfate form A) of 4.7 µg/mL. For the same molecule, the Solubility ([1]; solvent Acetone, ethyl sulfate form A) was 6.2 µg/mL, the Solubility ([1]; solvent Acetonitrile, ethyl sulfate form A) was 45 µg/mL and the Solubility ([1]; solvent Cyclohexane, ethyl sulfate form A) was <3.5 µg/mL. For the same molecule, the Solubility ([1]; solvent DCM, ethyl sulfate form A) was <3.5 µg/mL, the Solubility ([1]; solvent DMF, ethyl sulfate form A) was 5900 µg/mL and the Solubility ([1]; solvent DMSO, ethyl sulfate form A) was 76000 µg/mL. The Solubility ([1]; solvent EtOAc, ethyl sulfate form A) was <3.5 µg/mL, the Solubility ([1]; solvent EtOH, ethyl sulfate form A) was 120 µg/mL and the Solubility ([1]; solvent Isoamyl alcohol, ethyl sulfate form A) was 23 µg/mL. The Solubility ([1]; solvent MTBE, ethyl sulfate form A) was <3.5 µg/mL, the Solubility ([1]; solvent MeOH, ethyl sulfate form A) was 1600 µg/mL and the Solubility ([1]; solvent Methyl ethyl ketone, ethyl sulfate form A) was 200 µg/mL. For the same molecule, the Solubility ([1]; solvent Toluene, ethyl sulfate form A) was <3.5 µg/mL, the “pH in aqueous environment” value [2] was “more neutral” and the Stability towards hydrolysis [2] was “much more stable”.

For “1-(8-bromopyrido[2,3-e][1,2,4]triazolo[4,3-a]pyrazin-4-yl)-N-methylazetidin-3-amine methyl sulfate”, the “Solubility (in words)” value ([1]; in 1-propanol acetonitrile and ethanol) was “intermediate”, the “Solubility (in words)” value ([1]; in 1-propanol:H2O (1:5) and DMSO) was “very high” and the “Solubility (in words)” value ([1]; in THF, EtOAC, Toluene, MTBE and methyl ethyl ketone) was “very low”. The “Solubility (in words)” value ([1]; in a number of solvents) was “relatively high”, the “Solubility (in words)” value ([1]; in isoamyl alcohol and 2-propanol) was “low” and the “Solubility (in words)” value ([1]; in methanol and DMF) was “high”. For the same molecule, the Solubility ([1]; solvent 1-propanol/H2O (1:5), solid form A + B) was 44000 µg/mL, the Solubility ([1]; solvent 1-propanol, solid form B) was 50 µg/mL and the Solubility ([1]; solvent 2-propanol, solid form A + B) was 16 µg/mL. For the same molecule, the Solubility ([1]; solvent Acetone, solid form B) was <3 µg/mL, the Solubility ([1]; solvent Acetonitrile, solid form B) was 55 µg/mL and the Solubility ([1]; solvent DMF, solid form B) was 8200 µg/mL. For the same molecule, the Solubility ([1]; solvent DMSO, solid form A + C) was “>/=69000 μg/ml”, the Solubility ([1]; solvent EtOAc, solid form B) was <3 µg/mL and the Solubility ([1]; solvent EtOH, solid form B) was 110 µg/mL. The Solubility ([1]; solvent Isoamyl alcohol, solid form A + B) was 6.3 µg/mL, the Solubility ([1]; solvent MTBE, solid form A + B) was <3 µg/mL and the Solubility ([1]; solvent MeOH, solid form B) was 1600 µg/mL. For the same molecule, the Solubility ([1]; solvent Methyl ethyl ketone, solid form B) was <3 µg/mL, the Solubility ([1]; solvent THF, solid form B) was <3 µg/mL and the Solubility ([1]; solvent Toluene, solid form A + B) was <3 µg/mL. The “pH in aqueous environment” value [2] was “more neutral” and the Stability towards hydrolysis [2] was “much more stable”.

With “1-(8-bromopyrido[2,3-e][1,2,4]triazolo[4,3-a]pyrazin-4-yl)-N-methylazetidin-3-amine methyl sulfate monohydrate [form A]” the “Drying behaviour of crystal lattice” value ([3]; freeze dryer or vacuum oven at 60° C.) was “without collapsing the crystal lattice” and the “Stability during gentle drying” value [3] was “stable”.

For `CNC1CN(c2nc3ncc(Br)cc3n3cnnc23)C1` [1-(8-bromopyrido[2,3-e][1,2,4]triazolo[4,3-a]pyrazin-4-yl)-N-methylazetidin-3-amine], the “histamine 4 receptor inhibitory effect” value (histamine 4 receptor) is listed as “strong” and the “effects against histamine induced infiltration of inflammatory cells” value [4] is listed as “suppressive effects”.

In the case of `CNC1CN(c2nc3ncc(Br)cc3n3cnnc23)C1.COS(=O)(=O)O` [Form B, 1-(8-bromopyrido[2,3-e][1,2,4]triazolo[4,3-a]pyrazin-4-yl)-N-methylazetidin-3-amine methyl sulfate anhydrate], the “Stability in water-containing environments” value ([3]; environments containing 60% water) is reported as “stable” and the “Stability during gentle drying” value [3] is reported as “stable”.

With `CNC1CN(c2nc3ncc(Br)cc3n3cnnc23)C1.CS(=O)(=O)O` [methane sulfonate salt, 1-(8-bromopyrido[2,3-e][1,2,4]triazolo[4,3-a]pyrazin-4-yl)-N-methylazetidin-3-amine methane sulfonate] the “pH in aqueous environment” value [2] was “more neutral” and the Stability towards hydrolysis [2] was “much more stable”.
